According to PubChem BioAssay (NCI):
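96-well plates; 48 h exposure; 5 concentrations. Endpoints by linear interpolation between flanking doses. Not reached: highest tested concentration assigned. GI50 = concentration required for 50% inhibition of growth. TGI marks complete inhibition of growth.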

Experiments:
Assay in all cases: DTP human tumour cell line panel, 48 h
HT29 colon = system: HT29 colon
CAKI-1 renal = system: CAKI-1 renal
COLO 205 colon = system: COLO 205 colon
NCI-H226 lung = system: NCI-H226 lung
SF-295 CNS = system: SF-295 CNS
RXF 393 renal = system: RXF 393 renal
SR leukemia = system: SR leukemia
MDA-MB-435 = system: MDA-MB-435
SK-MEL-2 melanoma = system: SK-MEL-2 melanoma
M14 melanoma = system: M14 melanoma
OVCAR-3 ovarian = system: OVCAR-3 ovarian
HCT-15 colon = system: HCT-15 colon
BT-549 breast = system: BT-549 breast
K-562 leukemia = system: K-562 leukemia
SN12C renal = system: SN12C renal
SK-MEL-28 melanoma = system: SK-MEL-28 melanoma
SNB-19 CNS = system: SNB-19 CNS
EKVX NSCLC = system: EKVX NSCLC
HCC-2998 colon = system: HCC-2998 colon
HOP-92 NSCLC = system: HOP-92 NSCLC
NCI-H23 lung = system: NCI-H23 lung
DU-145 prostate = system: DU-145 prostate
LOX IMVI melanoma = system: LOX IMVI melanoma
NCI-H460 lung = system: NCI-H460 lung
SF-268 CNS = system: SF-268 CNS
HCT-116 colon = system: HCT-116 colon
HOP-62 NSCLC = system: HOP-62 NSCLC
OVCAR-5 ovarian = system: OVCAR-5 ovarian
SNB-75 CNS = system: SNB-75 CNS
SF-539 CNS = system: SF-539 CNS
TK-10 renal = system: TK-10 renal
SW-620 colon = system: SW-620 colon
HS 578T breast = system: HS 578T breast
MOLT-4 leukemia = system: MOLT-4 leukemia
U251 CNS = system: U251 CNS
MALME-3M melanoma = system: MALME-3M melanoma
A549 NSCLC = system: A549 NSCLC
PC-3 prostate = system: PC-3 prostate
IGROV1 ovarian = system: IGROV1 ovarian
RPMI-8226 leukemia = system: RPMI-8226 leukemia
786-0 renal = system: 786-0 renal
UACC-257 melanoma = system: UACC-257 melanoma
MCF7 breast = system: MCF7 breast
OVCAR-8 ovarian = system: OVCAR-8 ovarian
UACC-62 melanoma = system: UACC-62 melanoma
UO-31 renal = system: UO-31 renal
SK-OV-3 ovarian = system: SK-OV-3 ovarian
OVCAR-4 ovarian = system: OVCAR-4 ovarian
KM12 colon = system: KM12 colon
ACHN renal = system: ACHN renal
CCRF-CEM leukemia = system: CCRF-CEM leukemia
T-47D breast = system: T-47D breast
SK-MEL-5 melanoma = system: SK-MEL-5 melanoma
NCI-H522 lung = system: NCI-H522 lung
MDA-MB-231 breast = system: MDA-MB-231 breast
NCI/ADR-RES ovarian = system: NCI/ADR-RES ovarian
A498 renal = system: A498 renal

Which GI50 (HT29 colon) does the source give for `CC(C)(C)c1cc(/C=N/NC(=O)c2ccccc2NC(=O)c2cccs2)c(O)c(C(C)(C)C)c1` here?
The GI50 was 0.798 µM.

What about the TGI (HT29 colon) of the same molecule?
The TGI was greater than 100 µM.

And the GI50 (CAKI-1 renal)?
Its GI50 is 0.536 µM.

And the TGI (CAKI-1 renal)?
The TGI was greater than 100 µM.

What about the GI50 (COLO 205 colon) of the same molecule?
Its GI50 is 0.412 µM.

What about the TGI (COLO 205 colon) of the same molecule?
The TGI was 22.2 µM.

And the GI50 (NCI-H226 lung)?
The GI50 was 3 µM.

And the TGI (NCI-H226 lung)?
The TGI was greater than 100 µM.

What about the GI50 (SF-295 CNS) of the same molecule?
The GI50 was 0.521 µM.

And the TGI (SF-295 CNS)?
The TGI was 17.9 µM.

And the GI50 (RXF 393 renal)?
Its GI50 is 3.02 µM.

And the TGI (RXF 393 renal)?
The TGI was 47.4 µM.

And the GI50 (SR leukemia)?
Its GI50 is 0.786 µM.

What about the TGI (SR leukemia) of the same molecule?
Its TGI is 3.6 µM.

What about the GI50 (MDA-MB-435) of the same molecule?
Its GI50 is 2.46 µM.

What about the TGI (MDA-MB-435) of the same molecule?
The TGI was 77.7 µM.

What about the GI50 (SK-MEL-2 melanoma) of the same molecule?
Its GI50 is 20.2 µM.

What about the TGI (SK-MEL-2 melanoma) of the same molecule?
Its TGI is greater than 100 µM.

And the GI50 (M14 melanoma)?
The GI50 was 0.459 µM.

And the TGI (M14 melanoma)?
Its TGI is 16 µM.

And the GI50 (OVCAR-3 ovarian)?
The GI50 was 1.06 µM.

And the TGI (OVCAR-3 ovarian)?
Its TGI is 10.5 µM.

And the GI50 (HCT-15 colon)?
The GI50 was 0.22 µM.

What about the TGI (HCT-15 colon) of the same molecule?
The TGI was greater than 100 µM.

What about the GI50 (BT-549 breast) of the same molecule?
Its GI50 is 4.65 µM.

And the TGI (BT-549 breast)?
Its TGI is greater than 100 µM.

And the GI50 (K-562 leukemia)?
Its GI50 is 1.1 µM.

What about the TGI (K-562 leukemia) of the same molecule?
Its TGI is 51.6 µM.

And the GI50 (SN12C renal)?
Its GI50 is 1.92 µM.

What about the TGI (SN12C renal) of the same molecule?
Its TGI is 62.8 µM.

What about the GI50 (SK-MEL-28 melanoma) of the same molecule?
The GI50 was 3 µM.

What about the TGI (SK-MEL-28 melanoma) of the same molecule?
Its TGI is 46.2 µM.

What about the GI50 (SNB-19 CNS) of the same molecule?
The GI50 was 0.916 µM.

What about the TGI (SNB-19 CNS) of the same molecule?
The TGI was 71.1 µM.

What about the GI50 (EKVX NSCLC) of the same molecule?
Its GI50 is 0.365 µM.

And the TGI (EKVX NSCLC)?
Its TGI is greater than 100 µM.

What about the GI50 (HCC-2998 colon) of the same molecule?
The GI50 was 0.88 µM.

And the TGI (HCC-2998 colon)?
Its TGI is 30.1 µM.

And the GI50 (HOP-92 NSCLC)?
The GI50 was 4.44 µM.

What about the TGI (HOP-92 NSCLC) of the same molecule?
The TGI was 80.5 µM.

What about the GI50 (NCI-H23 lung) of the same molecule?
The GI50 was 1.62 µM.

What about the TGI (NCI-H23 lung) of the same molecule?
Its TGI is 25.5 µM.

And the GI50 (DU-145 prostate)?
Its GI50 is 4.13 µM.

And the TGI (DU-145 prostate)?
Its TGI is greater than 100 µM.

And the GI50 (LOX IMVI melanoma)?
Its GI50 is 0.542 µM.

What about the TGI (LOX IMVI melanoma) of the same molecule?
The TGI was greater than 100 µM.

And the GI50 (NCI-H460 lung)?
The GI50 was 0.331 µM.

And the TGI (NCI-H460 lung)?
Its TGI is 1.98 µM.

What about the GI50 (SF-268 CNS) of the same molecule?
The GI50 was 0.668 µM.

What about the TGI (SF-268 CNS) of the same molecule?
The TGI was greater than 100 µM.

And the GI50 (HCT-116 colon)?
The GI50 was 0.713 µM.

What about the TGI (HCT-116 colon) of the same molecule?
Its TGI is 14.4 µM.

What about the GI50 (HOP-62 NSCLC) of the same molecule?
Its GI50 is 0.779 µM.

What about the TGI (HOP-62 NSCLC) of the same molecule?
Its TGI is 21.6 µM.

What about the GI50 (OVCAR-5 ovarian) of the same molecule?
Its GI50 is 2.83 µM.

And the TGI (OVCAR-5 ovarian)?
Its TGI is 62.4 µM.

And the GI50 (SNB-75 CNS)?
Its GI50 is 13.1 µM.

What about the TGI (SNB-75 CNS) of the same molecule?
Its TGI is greater than 100 µM.

What about the GI50 (SF-539 CNS) of the same molecule?
The GI50 was 1.93 µM.

What about the TGI (SF-539 CNS) of the same molecule?
Its TGI is 22.1 µM.

What about the GI50 (TK-10 renal) of the same molecule?
Its GI50 is 0.994 µM.

What about the TGI (TK-10 renal) of the same molecule?
Its TGI is 18.1 µM.

And the GI50 (SW-620 colon)?
The GI50 was 1.38 µM.

And the TGI (SW-620 colon)?
Its TGI is 17.8 µM.

What about the GI50 (HS 578T breast) of the same molecule?
Its GI50 is 5.13 µM.

What about the TGI (HS 578T breast) of the same molecule?
Its TGI is 42.6 µM.

And the GI50 (MOLT-4 leukemia)?
The GI50 was 0.872 µM.

What about the TGI (MOLT-4 leukemia) of the same molecule?
The TGI was 20.6 µM.

And the GI50 (U251 CNS)?
The GI50 was 0.7 µM.

What about the TGI (U251 CNS) of the same molecule?
Its TGI is 7.64 µM.

And the GI50 (MALME-3M melanoma)?
Its GI50 is 2.11 µM.

What about the TGI (MALME-3M melanoma) of the same molecule?
Its TGI is 26.7 µM.

What about the GI50 (A549 NSCLC) of the same molecule?
The GI50 was 0.796 µM.

And the TGI (A549 NSCLC)?
Its TGI is 17.9 µM.

What about the GI50 (PC-3 prostate) of the same molecule?
Its GI50 is 2.8 µM.

And the TGI (PC-3 prostate)?
The TGI was greater than 100 µM.

What about the GI50 (IGROV1 ovarian) of the same molecule?
Its GI50 is 0.683 µM.

And the TGI (IGROV1 ovarian)?
The TGI was greater than 100 µM.

What about the GI50 (RPMI-8226 leukemia) of the same molecule?
The GI50 was 1.05 µM.

And the TGI (RPMI-8226 leukemia)?
Its TGI is 14 µM.

What about the GI50 (786-0 renal) of the same molecule?
Its GI50 is 0.588 µM.

And the TGI (786-0 renal)?
Its TGI is 15.7 µM.

And the GI50 (UACC-257 melanoma)?
The GI50 was 6.18 µM.

What about the TGI (UACC-257 melanoma) of the same molecule?
Its TGI is greater than 100 µM.

And the GI50 (MCF7 breast)?
The GI50 was 0.485 µM.

What about the TGI (MCF7 breast) of the same molecule?
The TGI was greater than 100 µM.

What about the GI50 (OVCAR-8 ovarian) of the same molecule?
Its GI50 is 0.895 µM.

And the TGI (OVCAR-8 ovarian)?
Its TGI is 11.2 µM.

What about the GI50 (UACC-62 melanoma) of the same molecule?
The GI50 was 0.39 µM.

What about the TGI (UACC-62 melanoma) of the same molecule?
The TGI was 14 µM.

And the GI50 (UO-31 renal)?
Its GI50 is 0.269 µM.

And the TGI (UO-31 renal)?
The TGI was 15.7 µM.

And the GI50 (SK-OV-3 ovarian)?
Its GI50 is 1.29 µM.

And the TGI (SK-OV-3 ovarian)?
Its TGI is greater than 100 µM.

And the GI50 (OVCAR-4 ovarian)?
The GI50 was 0.193 µM.

And the TGI (OVCAR-4 ovarian)?
Its TGI is 5.97 µM.

And the GI50 (KM12 colon)?
The GI50 was 0.831 µM.

And the TGI (KM12 colon)?
The TGI was greater than 100 µM.

And the GI50 (ACHN renal)?
The GI50 was 0.413 µM.

What about the TGI (ACHN renal) of the same molecule?
The TGI was 19.2 µM.

What about the GI50 (CCRF-CEM leukemia) of the same molecule?
Its GI50 is 0.336 µM.

And the TGI (CCRF-CEM leukemia)?
Its TGI is 11.7 µM.

And the GI50 (T-47D breast)?
The GI50 was 1.85 µM.

What about the TGI (T-47D breast) of the same molecule?
Its TGI is 29.4 µM.

What about the GI50 (SK-MEL-5 melanoma) of the same molecule?
Its GI50 is 0.7 µM.

And the TGI (SK-MEL-5 melanoma)?
Its TGI is greater than 100 µM.

What about the GI50 (NCI-H522 lung) of the same molecule?
Its GI50 is 1.84 µM.

And the TGI (NCI-H522 lung)?
The TGI was 30.4 µM.

What about the GI50 (MDA-MB-231 breast) of the same molecule?
The GI50 was 1.11 µM.

And the TGI (MDA-MB-231 breast)?
Its TGI is 19.1 µM.

And the GI50 (NCI/ADR-RES ovarian)?
Its GI50 is 0.606 µM.

What about the TGI (NCI/ADR-RES ovarian) of the same molecule?
The TGI was 15.9 µM.

And the GI50 (A498 renal)?
The GI50 was 10.4 µM.

What about the TGI (A498 renal) of the same molecule?
The TGI was 42.5 µM.
